{
  "source": "patent US8173694B2",
  "about": "“Therapeutic agent” (Pentraxin Therapeutics Limited, priority 2001, dated 2012)",
  "key": {"125I-labelled human SAP": {"biological_target": "T1, 125I-labelled human SAP (Homo sapiens, UniProt P02743)", "T1 construct": "intravenous injection of ^125I-labelled pure human or mouse SAP at time zero", "T1 sequence (P02743 20-223)": "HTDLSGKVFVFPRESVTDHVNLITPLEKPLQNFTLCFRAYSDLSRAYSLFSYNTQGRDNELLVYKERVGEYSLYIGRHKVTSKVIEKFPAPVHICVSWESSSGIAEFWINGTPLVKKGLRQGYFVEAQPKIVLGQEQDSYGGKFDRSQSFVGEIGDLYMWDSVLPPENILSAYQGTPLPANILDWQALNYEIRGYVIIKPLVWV", "experiment": "Human SAP tracer in amyloid deposits of mice with AA amyloidosis", "assay_type": "in vivo, mouse", "method": "(§1) Clearance from the amyloid deposits, catabolism and excretion of the human SAP tracer were monitored globally by whole body counting of the mice (left), and the total amount of mouse SAP in the amyloidotic organs was determined after killing the animals on day 5 (right). […] Immediately after the 15 minute bleed, two groups, one that had received human SAP and the other mouse SAP, received a single intraperitoneal injection of 5 mg of (R)-1-[6-(R)-2-Carboxy-pyrrolidin-1-yl]-6-oxo-hexanoyl]pyrrolidine-2-carboxylic acid (desapin). Tracer remaining in the circulation is expressed as the mean (SD) percentage of the amount at the 15 minute time point for each group. […] In one of each of the pairs of groups receiving mouse or human SAP respectively, the tracer had been mixed with (R)-1-[6-(R)-2-Carboxy-pyrrolidin-1-yl]-6-oxo-hexanoyl]pyrrolidine-2-carboxylic acid (desapin) and incubated in vitro before injection into the animals. Tracer remaining in the circulation is expressed as mean (SD) total radioactivity per gram of blood in each group. Bottom panel: effect of administration of (R)-1-[6-(R)-2-Carboxy-pyrrolidin-1-yl]-6-oxo-hexanoyl]pyrrolidine-2-carboxylic acid (desapin) in the drinking water at the concentrations shown, on circulating human SAP values in human SAP transgenic mice. Mice of approximately 20 g body weight consume about 3 ml water per day.\nWhen (R)-1-[6-(R)-2-Carboxy-pyrrolidin-1-yl]-6-oxo-hexanoyl]pyrrolidine-2-carboxylic acid was administered by continuous infusion for 5 days via an indwelling osmotic pump, it dissociated both radiolabelled human SAP tracer, with which the amyloid deposits had previously been loaded, and all the endogenous mouse SAP in the deposits (FIG. 3). […] The SAP-(R)-1-[6-(R)-2-Carboxy-pyrrolidin-1-yl]-6-oxo-hexanoyl]pyrrolidine-2-carboxylic acid complex is evidently recognised as abnormal in vivo and swiftly removed from the circulation, but is apparently formed and/or cleared less efficiently in vivo with mouse SAP compared to human SAP."}, "radiolabelled human SAP": {"biological_target": "T2, radiolabelled human SAP (Homo sapiens, UniProt P02743)", "T2 construct": "intravenous injection of ^125I-labelled pure human or mouse SAP at time zero", "T2 sequence (P02743 20-223)": "as above", "experiment": "Plasma clearance of radiolabelled human SAP tracer in mice", "assay_type": "in vivo, mouse", "method": "as §1, with “day. […]” for “day.”"}, "SAP in whole human serum": {"biological_target": "T3, SAP in whole human serum (Homo sapiens, UniProt P02743)", "T3 construct": "Aliquots of a single pool of whole normal human serum, containing SAP and CRP; from tissue; host or cells: pooled whole normal human serum", "T3 sequence (P02743 20-223)": "as above", "experiment": "Size exclusion chromatography of whole human serum mixed with drug: SAP", "assay_type": "binding", "method": "Aliquots of a single pool of whole normal human serum, containing SAP and CRP, were mixed with (R)-1-[6-(R)-2-Carboxy-pyrrolidin-1-yl]-6-oxo-hexanoyl]pyrrolidine-2-carboxylic acid at the molar ratios shown, with respect to pentraxin protomer, and analysed by size exclusion chromatography precisely as described previously (14). The mixtures and the column eluants contained either no calcium ions or 2 mM calcium, and the concentrations of drug appropriate to maintain the molar ratios indicated above. SAP in whole serum is a stable soluble pentameric assembly of protomers, stabilised by the presence of the normal high concentration of serum albumin. However as SAP is separated from serum albumin during gel filtration with a calcium containing eluant, the SAP autoaggregates and elutes entirely as high molecular weight polymers in the void volume of the column. This is because, in the absence of a specific ligand to which it can bind, isolated human SAP is insoluble in the presence of calcium (14). However in the absence of calcium, where no ligand binding or autoaggregation can occur, SAP forms stable decamers, providing an excellent marker for the elution volume of this molecular assembly (14). Human CRP is a stable pentamer either in the presence or absence of calcium and thus provides a robust marker for the elution position of that molecular form (14)."}, "radiolabelled mouse SAP": {"biological_target": "T4, radiolabelled mouse SAP (Mus musculus, UniProt P12246)", "T4 construct": "intravenous injection of ^125I-labelled pure human or mouse SAP at time zero", "T4 sequence (P12246 21-224)": "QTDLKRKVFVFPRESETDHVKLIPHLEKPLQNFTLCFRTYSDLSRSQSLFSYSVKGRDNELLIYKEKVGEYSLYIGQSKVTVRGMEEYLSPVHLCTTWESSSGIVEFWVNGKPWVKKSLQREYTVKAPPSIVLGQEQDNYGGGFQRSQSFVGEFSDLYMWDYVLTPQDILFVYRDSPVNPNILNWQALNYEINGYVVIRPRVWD", "experiment": "Plasma clearance of radiolabelled mouse SAP tracer in mice", "assay_type": "in vivo", "method": "as §1, with “day. […]” for “day.”"}, "isolated pure human SAP": {"biological_target": "isolated pure human SAP (Homo sapiens, UniProt P02743)", "sequence (P02743 20-223)": "as the sequence (P02743 20-223) above", "experiment": "Size exclusion chromatography of isolated pure SAP mixed with drug", "assay_type": "binding", "settings": "for Elution volume / Molecular assembly: SAP", "excerpt": "SAP is a pentamer with 5 identical non-covalently associated protomers each bearing a single calcium dependent ligand binding site on one planar face, the binding (B) face, of the molecule (9). In the absence of calcium, human SAP forms stable decameric dimers, probably via A-face to A-face interactions (11). In the presence of calcium, isolated human SAP rapidly aggregates and precipitates, as a result of molecular lattice formation due to binding of the exposed carboxylate of the Glu167 residue on one SAP molecule by the calcium dependent ligand binding site of another SAP molecule (12,13). This autoaggregation of SAP is inhibited by other ligands to which SAP binds, and all the present inhibitors of SAP binding to amyloid fibrils were active in this respect. However we show here that the greater potency of (R)-1-[6-(R)-2-Carboxy-pyrrolidin-1-yl]-6-oxo-hexanoyl]pyrrolidine-2-carboxylic acid and related compounds, as inhibitors of SAP binding to amyloid fibrils in vitro, results from their capacity to cross link pairs of SAP molecules. The palindromic structure of (R)-1-[6-(R)-2-Carboxy-pyrrolidin-1-yl]-6-oxo-hexanoyl]pyrrolidine-2-carboxylic acid enables it to not only block the ligand binding sites on individual SAP protomers, but could also cross link pairs of pentameric SAP molecules to form B-B face to face decameric dimers.\nC-reactive protein (CRP) is a pentraxin closely related to SAP. Samples of isolated pure human SAP or CRP were mixed with (R)-1-[6-(R)-2-Carboxy-pyrrolidin-1-yl]-6-oxo-hexanoyl]pyrrolidine-2-carboxylic acid at the molar ratios shown, with respect to pentraxin protomer, in physiological ionic strength Tris buffered saline pH 8.0, and analysed by size exclusion chromatography precisely as described previously (14). The mixtures and the column eluants contained either no calcium ions or 2 mM calcium, and the concentrations of drug appropriate to maintain the molar ratios indicated above. In the absence of a specific ligand to which it can bind, purified human SAP is insoluble in the presence of calcium and elutes as high molecular weight aggregates in the void volume of the column (14). However in the absence of calcium and ligand, isolated SAP alone forms stable decamers, providing an excellent marker for the elution volume of this molecular assembly (14). Human CRP is a stable pentamer either in the presence or absence of calcium and thus provides a robust marker for the elution position of that molecular form (14)."}, "[1]": {"settings": "single intraperitoneal injection of 5 mg"}, "[2]": {"settings": "tracer preincubated with drug before intravenous injection into normal mice"}, "[3]": {"settings": "drug:protein 1:1, calcium present"}, "[4]": {"settings": "drug:protein 10:1, calcium present"}, "[5]": {"settings": "drug:protein 100:1, calcium present"}, "[6]": {"settings": "drug:protein 128:1, calcium present"}},
  "note": "“Also recorded” adds a separate entry of the source.",
  "data": [
    {"smiles": "O=C(O)[C@H]1CCCN1C(=O)CCCCC(=O)N1CCC[C@@H]1C(=O)O", "note": "[(R)-1-[6-(R)-2-Carboxy-pyrrolidin-1-yl]-6-oxo-hexanoyl]pyrrolidine-2-carboxylic acid]", "values": [
      {"measurement": "Dissociation of human SAP from amyloid deposits", "setting": "125I-labelled human SAP; 50 μg/kg/day, continuous infusion", "result": "significantly dissociated"},
      {"measurement": "Dissociation of radiolabelled human SAP tracer from amyloid deposits", "setting": "125I-labelled human SAP; continuous infusion for 5 days via osmotic pump", "result": "dissociated"},
      {"measurement": "Uptake of radiolabelled human SAP tracer into mouse AA amyloid deposits", "setting": "125I-labelled human SAP; intermittent intraperitoneal or subcutaneous injection", "result": "inhibited uptake"},
      {"measurement": "Plasma clearance of radiolabelled human SAP tracer", "setting": "radiolabelled human SAP; [1]", "result": "accelerated"},
      {"measurement": "Clearance of radiolabelled human SAP preincubated with drug in vitro", "setting": "radiolabelled human SAP; [2]", "result": "extremely rapidly cleared"},
      {"measurement": "Molecular assembly", "setting": "SAP in whole human serum; [3]", "result": "some of the SAP was solubilised as stable drug-decamer complexes; also recorded: High MW"},
      {"measurement": "Molecular assembly", "setting": "SAP in whole human serum; [4]", "result": "High MW; also recorded: Decamer"},
      {"measurement": "Elution volume", "setting": "SAP in whole human serum; [5]", "result": "10.0 to 10.5", "unit": "mL"},
      {"measurement": "Molecular assembly", "setting": "SAP in whole human serum; [5]", "result": "all the SAP was in this form; also recorded: Decamer"},
      {"measurement": "Clearance of radiolabelled mouse SAP", "setting": "radiolabelled mouse SAP; [1]", "result": "no significant effect"},
      {"measurement": "Clearance of radiolabelled mouse SAP preincubated with drug in vitro", "setting": "radiolabelled mouse SAP; [2]", "result": "extremely rapidly cleared"},
      {"measurement": "Molecular assembly of isolated SAP by gel filtration", "setting": "isolated pure human SAP; 128 fold or greater molar excess of drug", "result": "single pentameric form"},
      {"measurement": "Elution volume", "setting": "isolated pure human SAP; [3]", "result": 10.97, "unit": "mL"},
      {"measurement": "Molecular assembly", "setting": "isolated pure human SAP; [3]", "result": "Decamer"},
      {"measurement": "Elution volume", "setting": "isolated pure human SAP; [4]", "result": 10.97, "unit": "mL"},
      {"measurement": "Molecular assembly", "setting": "isolated pure human SAP; [4]", "result": "Decamer"},
      {"measurement": "Elution volume", "setting": "isolated pure human SAP; [6]", "result": 12.55, "unit": "mL"},
      {"measurement": "Molecular assembly", "setting": "isolated pure human SAP; [6]", "result": "Pentamer"},
      {"measurement": "Molecular assembly of isolated SAP by gel filtration", "setting": "isolated pure human SAP; ratios between equimolar and 100 fold molar excess of drug to SAP protomers", "result": "all the SAP is decameric"}
    ]}
  ]
}
